Results: PubChem BioAssay (NCI)
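Protocol summary: plate cells (96-well), add compound at 5 concentrations, incubate 48 h, interpolate endpoints linearly. Abbreviation: GI50, concentration required for 50% inhibition of growth. TGI is the concentration that stops growth completely.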

Key:
Test in all cases: NCI anticancer screen, dose series, 48 h
IGROV1 ovarian = test system: IGROV1 ovarian
SNB-75 CNS = test system: SNB-75 CNS
UO-31 renal = test system: UO-31 renal
CCRF-CEM leukemia = test system: CCRF-CEM leukemia
SK-OV-3 ovarian = test system: SK-OV-3 ovarian
SW-620 colon = test system: SW-620 colon
HCT-116 colon = test system: HCT-116 colon
HCT-15 colon = test system: HCT-15 colon
HCC-2998 colon = test system: HCC-2998 colon
OVCAR-4 ovarian = test system: OVCAR-4 ovarian

SMILES | TGI (IGROV1 ovarian) | TGI (SNB-75 CNS) | TGI (UO-31 renal) | TGI (CCRF-CEM leukemia) | TGI (SK-OV-3 ovarian) | TGI (SW-620 colon) | TGI (HCT-116 colon) | TGI (HCT-15 colon) | TGI (HCC-2998 colon) | TGI (OVCAR-4 ovarian) | GI50 (IGROV1 ovarian) | GI50 (UO-31 renal) | GI50 (CCRF-CEM leukemia) | GI50 (SK-OV-3 ovarian) | GI50 (SW-620 colon) | GI50 (OVCAR-4 ovarian) | GI50 (HCT-116 colon) | GI50 (HCT-15 colon) | GI50 (HCC-2998 colon) | GI50 (SNB-75 CNS)
O=C(C(O)c1cn(Cc2ccccc2)c2ccccc12)N1CCCCC1 (centres undefined) | > 100 µM | > 100 µM | > 100 µM | > 100 µM | > 100 µM | > 100 µM | > 100 µM | > 100 µM | > 100 µM | – | – | – | – | – | – | – | – | – | – | –
Cc1cc2nc3c(C(OC4OC(CO)C(O)C(O)C4O)C(O)CO)nn(-c4ccccc4)c3nc2cc1C (centres undefined) | – | > 100 µM | > 100 µM | > 100 µM | > 100 µM | – | > 100 µM | > 100 µM | > 100 µM | > 100 µM | – | – | – | – | – | – | – | – | – | –
CCOc1ccccc1NC(=O)/C=C1\NC(=O)CS1 | > 100 µM | 98.7 µM | > 100 µM | > 100 µM | > 100 µM | > 100 µM | > 100 µM | – | > 100 µM | > 100 µM | – | – | – | – | – | – | – | – | – | –
Cc1cc2c(CC(=O)O)[nH]nc2c(C(=O)O)c1C | – | > 100 µM | > 100 µM | > 100 µM | > 100 µM | > 100 µM | > 100 µM | > 100 µM | > 100 µM | – | – | – | – | – | – | – | – | – | – | –
CCN(CC)c1ccc(N=Nc2ccc(-c3nc4cccnc4o3)cc2)cc1 | > 100 µM | > 100 µM | > 100 µM | > 100 µM | – | > 100 µM | > 100 µM | > 100 µM | > 100 µM | > 100 µM | – | – | – | – | – | – | – | – | – | –
CCCC(=O)c1c(NOC2OC(COC(C)=O)C(OC(C)=O)C(OC(C)=O)C2OC(C)=O)nc(OC)n(C)c1=O (centres undefined) | > 100 µM | > 100 µM | 89 µM | > 100 µM | – | > 100 µM | > 100 µM | > 100 µM | > 100 µM | > 100 µM | – | – | – | – | – | – | – | – | – | –
N#CC(C#N)=C(N)/C(C#N)=C\c1ccnc2ccccc12 | 49.5 µM | 70.7 µM | 40.9 µM | 10.3 µM | – | 17.2 µM | 12.4 µM | – | > 100 µM | > 100 µM | – | – | – | – | – | – | – | – | – | –
Cc1c(CCCl)c(=O)n2c([nH]c3ccccc32)c1C#N | 3.4 µM | 2.78 µM | 3.51 µM | 2.5 µM | 3.84 µM | 2.27 µM | 1.93 µM | 2.93 µM | – | 3.16 µM | – | – | – | – | – | – | – | – | – | –
CC(=O)Oc1cc(C)ccc1[C@]1(C)CC[C@H](C)/C1=C\Br | 26.6 µM | – | 34 µM | 10.1 µM | 7.65 µM | 17.1 µM | 18.8 µM | 19.2 µM | – | 12.6 µM | 7.6 µM | 8.43 µM | 2.75 µM | 2.43 µM | 5.31 µM | 2.87 µM | 4.44 µM | 4.51 µM | – | –
CCCCC#COP(=O)(OCC)OCC | > 100 µM | – | > 100 µM | > 100 µM | > 100 µM | > 100 µM | > 100 µM | > 100 µM | > 100 µM | > 100 µM | – | – | – | – | – | – | – | – | – | –
COC1=CC23C=CC1[C@@H](c1ccccc1)C2=C(C)C(=O)N3C(=O)NC1CCCCC1 (some centres undefined) | > 100 µM | > 100 µM | 54.7 µM | 72.5 µM | 93.5 µM | 47.8 µM | 28.3 µM | 29.1 µM | 52 µM | – | – | – | – | – | – | – | – | – | – | –
C=CCNC(=S)N1CC(C)C(=O)Nc2ccccc21 (centres undefined) | > 100 µM | > 100 µM | > 100 µM | > 100 µM | – | > 100 µM | > 100 µM | > 100 µM | – | > 100 µM | – | – | – | – | – | – | – | – | – | –
O=c1cc(-c2ccccc2)[nH]c2cccc(S)c12 | > 100 µM | – | – | > 100 µM | 26.1 µM | > 100 µM | > 100 µM | > 100 µM | 4 µM | > 100 µM | – | – | – | – | – | – | – | – | – | –
CC(=O)N/C(=C\c1ccc(/C=C(\NC(C)=O)c2nc3ccc(Cl)cc3[nH]2)cc1)c1nc2ccccc2[nH]1 | > 100 µM | > 100 µM | – | > 100 µM | > 100 µM | > 100 µM | > 100 µM | > 100 µM | – | – | – | – | – | – | – | – | – | – | – | –
O=C1c2cc(Br)ccc2-c2c1c1ccc([N+](=O)[O-])cc1c(=O)n2CCCCl | 4.58 µM | – | 3.43 µM | 0.245 µM | 16 µM | > 100 µM | 5.94 µM | > 100 µM | 13 µM | 77.7 µM | 0.13 µM | 0.0577 µM | < 0.01 µM | 0.16 µM | 0.0533 µM | 11.2 µM | 1.05 µM | 1.41 µM | 1.55 µM | –
CC(=O)NC1=N/C(=C/c2cc([N+](=O)[O-])ccc2O)CN1C | > 100 µM | > 100 µM | > 100 µM | – | > 100 µM | > 100 µM | > 100 µM | > 100 µM | > 100 µM | > 100 µM | – | – | – | – | – | – | – | – | – | –
CCOC(=O)CCC(=O)C1c2cccc(O)c2C(=O)c2c(O)cccc21 | 4.72 µM | 2.33 µM | 1.48 µM | 3.68 µM | – | 2.24 µM | 2.6 µM | – | 2.31 µM | 1.86 µM | – | – | – | – | – | – | – | – | – | –
O=c1cc(-c2ccccc2)[nH]c2cc(Cl)cc(Cl)c12 | > 100 µM | 30 µM | > 100 µM | > 100 µM | 59.4 µM | > 100 µM | > 100 µM | > 100 µM | – | 68.6 µM | – | – | – | – | – | – | – | – | – | –
C=CCc1cc2cccc(OC)c2oc1=O | > 100 µM | > 100 µM | 69.2 µM | > 100 µM | – | > 100 µM | > 100 µM | > 100 µM | > 100 µM | > 100 µM | – | – | – | – | – | – | – | – | – | –
CCN(CC)CCC1CC/C(=C\c2ccc(OC)cc2)C1=O (centres undefined) | > 100 µM | > 100 µM | > 100 µM | > 100 µM | – | > 100 µM | > 100 µM | > 100 µM | > 100 µM | > 100 µM | – | – | – | – | – | – | – | – | – | –
S=C(Nc1ccc(-c2nc3ccccc3[nH]2)cc1)NC1CCCCC1 | – | > 100 µM | 71.6 µM | – | – | – | 39.5 µM | 37.9 µM | 32.4 µM | – | 35.2 µM | 21.3 µM | 36.8 µM | – | 31.6 µM | – | 20.7 µM | 16.2 µM | 16.4 µM | 25.1 µM
COP1(=O)CC2C(Cl)(Cl)C2(C)C1 (centres undefined) | > 100 µM | > 100 µM | – | > 100 µM | > 100 µM | > 100 µM | > 100 µM | – | > 100 µM | > 100 µM | – | – | – | – | – | – | – | – | – | –
